# Experimental data from article PMC9851200, “Multiparameter phenotypic screening for endogenous TFEB and TFE3 translocation identifies novel chemical series modulating lysosome function” (Autophagy, 2022).
# Experiments:
# Assay type in all cases: binding
# [1] = biological target: T1, kinases (KINOMEscan panel) (Homo sapiens, UniProt Q13873); settings: kinase BMPR2; NEW KINOMEscan
# T1 sequence (Q13873 27-1038): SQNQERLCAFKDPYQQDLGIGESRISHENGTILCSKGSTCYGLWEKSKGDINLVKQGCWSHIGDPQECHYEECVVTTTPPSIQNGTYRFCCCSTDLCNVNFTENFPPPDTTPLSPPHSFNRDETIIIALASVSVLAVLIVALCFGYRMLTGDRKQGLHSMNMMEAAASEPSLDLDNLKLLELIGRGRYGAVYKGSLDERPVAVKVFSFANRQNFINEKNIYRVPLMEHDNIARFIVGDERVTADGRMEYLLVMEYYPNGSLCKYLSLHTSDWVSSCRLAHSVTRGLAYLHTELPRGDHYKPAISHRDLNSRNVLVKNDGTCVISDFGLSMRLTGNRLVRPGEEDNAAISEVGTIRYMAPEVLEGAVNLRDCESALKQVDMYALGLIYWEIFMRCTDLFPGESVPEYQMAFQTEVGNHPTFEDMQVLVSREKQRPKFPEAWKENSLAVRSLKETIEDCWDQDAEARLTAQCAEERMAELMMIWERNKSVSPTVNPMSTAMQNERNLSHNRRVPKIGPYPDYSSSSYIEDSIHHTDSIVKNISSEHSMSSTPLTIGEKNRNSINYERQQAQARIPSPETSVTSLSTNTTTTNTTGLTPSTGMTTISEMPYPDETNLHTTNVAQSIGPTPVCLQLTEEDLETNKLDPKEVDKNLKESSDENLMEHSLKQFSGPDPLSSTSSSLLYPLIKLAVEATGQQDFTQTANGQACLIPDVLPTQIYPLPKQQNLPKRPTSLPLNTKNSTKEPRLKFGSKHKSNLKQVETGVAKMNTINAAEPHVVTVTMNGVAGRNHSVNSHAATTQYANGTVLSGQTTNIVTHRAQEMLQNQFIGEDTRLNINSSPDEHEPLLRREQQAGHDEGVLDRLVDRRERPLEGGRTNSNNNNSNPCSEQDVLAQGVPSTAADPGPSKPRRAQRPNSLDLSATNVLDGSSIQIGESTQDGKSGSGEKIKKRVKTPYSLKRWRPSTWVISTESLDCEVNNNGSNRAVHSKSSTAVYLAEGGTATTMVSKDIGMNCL
# [2] = biological target: kinases (KINOMEscan panel) (Homo sapiens, UniProt Q9BYP7); settings: NEW KINOMEscan
# [3] = biological target: kinases (KINOMEscan panel) (Homo sapiens, UniProt Q5VT25)
# [4] = biological target: kinases (KINOMEscan panel) (Homo sapiens, UniProt O75116); settings: kinase ROCK2; NEW KINOMEscan
# [5] = biological target: kinases (KINOMEscan panel) (Homo sapiens, UniProt P54764); settings: EPHA4; NEW KINOMEscan
# [6] = biological target: T2, kinases (KINOMEscan panel) (Homo sapiens, UniProt O15530); settings: NEW KINOMEscan
# T2 sequence (O15530 1-556): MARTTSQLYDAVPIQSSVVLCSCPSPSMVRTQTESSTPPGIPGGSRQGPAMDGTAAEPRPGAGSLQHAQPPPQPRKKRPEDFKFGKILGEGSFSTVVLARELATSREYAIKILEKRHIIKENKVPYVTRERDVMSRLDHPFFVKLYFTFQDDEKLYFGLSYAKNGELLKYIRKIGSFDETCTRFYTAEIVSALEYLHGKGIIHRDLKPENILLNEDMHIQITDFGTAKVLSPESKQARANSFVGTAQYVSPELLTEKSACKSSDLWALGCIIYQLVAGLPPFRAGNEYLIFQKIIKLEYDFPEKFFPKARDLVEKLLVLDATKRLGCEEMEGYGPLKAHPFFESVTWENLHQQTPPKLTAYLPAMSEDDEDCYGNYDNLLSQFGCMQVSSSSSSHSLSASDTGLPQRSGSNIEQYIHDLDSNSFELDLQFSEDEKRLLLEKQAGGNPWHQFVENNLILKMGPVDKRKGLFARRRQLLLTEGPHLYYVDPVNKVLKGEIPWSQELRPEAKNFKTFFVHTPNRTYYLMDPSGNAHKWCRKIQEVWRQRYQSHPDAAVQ
# [7] = biological target: kinases (KINOMEscan panel) (Homo sapiens, UniProt Q9P2K8, S808G)
# [8] = biological target: kinases (KINOMEscan panel) (Homo sapiens, UniProt P36888, R834Q); settings: kinase FLT3(R834Q); NEW KINOMEscan
# Chain of kinases (KINOMEscan panel) (Homo sapiens, UniProt Q9BYP7) (Q9BYP7 whole entry): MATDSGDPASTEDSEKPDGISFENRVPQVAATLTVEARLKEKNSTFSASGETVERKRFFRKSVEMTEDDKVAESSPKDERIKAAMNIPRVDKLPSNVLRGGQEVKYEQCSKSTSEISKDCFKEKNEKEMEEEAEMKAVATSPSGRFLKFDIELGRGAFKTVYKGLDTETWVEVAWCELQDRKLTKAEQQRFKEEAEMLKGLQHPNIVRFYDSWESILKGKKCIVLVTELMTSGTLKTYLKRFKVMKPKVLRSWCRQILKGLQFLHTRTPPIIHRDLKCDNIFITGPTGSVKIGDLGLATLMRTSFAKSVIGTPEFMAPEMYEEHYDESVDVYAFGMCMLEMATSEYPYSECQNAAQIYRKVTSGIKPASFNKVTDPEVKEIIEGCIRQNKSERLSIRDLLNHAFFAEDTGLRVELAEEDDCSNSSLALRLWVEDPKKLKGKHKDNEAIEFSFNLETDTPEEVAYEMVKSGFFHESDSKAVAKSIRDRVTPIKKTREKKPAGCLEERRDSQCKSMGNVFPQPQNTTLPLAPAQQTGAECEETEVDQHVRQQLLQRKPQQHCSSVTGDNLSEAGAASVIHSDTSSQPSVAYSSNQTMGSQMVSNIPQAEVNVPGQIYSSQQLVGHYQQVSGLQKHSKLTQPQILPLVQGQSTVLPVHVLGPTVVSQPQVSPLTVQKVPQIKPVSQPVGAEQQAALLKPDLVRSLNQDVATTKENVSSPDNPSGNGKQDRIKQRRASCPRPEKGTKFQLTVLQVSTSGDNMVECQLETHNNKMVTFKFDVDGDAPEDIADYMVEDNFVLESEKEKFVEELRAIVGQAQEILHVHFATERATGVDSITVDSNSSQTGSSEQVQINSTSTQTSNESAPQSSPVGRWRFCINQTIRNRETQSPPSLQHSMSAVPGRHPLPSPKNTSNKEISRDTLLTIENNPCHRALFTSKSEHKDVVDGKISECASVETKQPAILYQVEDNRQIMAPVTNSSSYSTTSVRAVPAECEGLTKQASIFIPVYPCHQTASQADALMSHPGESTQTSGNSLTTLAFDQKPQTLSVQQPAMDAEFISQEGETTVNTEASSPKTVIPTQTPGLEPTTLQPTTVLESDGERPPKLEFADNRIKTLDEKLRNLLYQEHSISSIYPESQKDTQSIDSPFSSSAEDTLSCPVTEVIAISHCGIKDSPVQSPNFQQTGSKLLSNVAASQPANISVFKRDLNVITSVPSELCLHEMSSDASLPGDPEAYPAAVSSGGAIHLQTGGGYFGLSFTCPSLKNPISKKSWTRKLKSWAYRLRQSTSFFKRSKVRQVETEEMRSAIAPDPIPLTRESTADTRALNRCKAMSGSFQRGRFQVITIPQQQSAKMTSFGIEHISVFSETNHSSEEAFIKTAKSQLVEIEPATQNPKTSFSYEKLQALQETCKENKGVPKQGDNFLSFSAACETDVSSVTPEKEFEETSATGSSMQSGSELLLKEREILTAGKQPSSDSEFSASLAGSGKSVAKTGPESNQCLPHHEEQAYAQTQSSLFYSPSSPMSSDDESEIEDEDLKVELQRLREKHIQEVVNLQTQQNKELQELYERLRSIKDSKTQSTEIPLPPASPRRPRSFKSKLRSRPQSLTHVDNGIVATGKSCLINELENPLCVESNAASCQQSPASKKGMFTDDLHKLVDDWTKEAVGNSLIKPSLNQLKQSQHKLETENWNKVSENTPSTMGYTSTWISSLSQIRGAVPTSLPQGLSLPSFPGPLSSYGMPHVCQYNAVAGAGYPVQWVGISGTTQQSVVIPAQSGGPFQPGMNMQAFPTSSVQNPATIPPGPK
# Chain of kinases (KINOMEscan panel) (Homo sapiens, UniProt P54764) (P54764 20-986): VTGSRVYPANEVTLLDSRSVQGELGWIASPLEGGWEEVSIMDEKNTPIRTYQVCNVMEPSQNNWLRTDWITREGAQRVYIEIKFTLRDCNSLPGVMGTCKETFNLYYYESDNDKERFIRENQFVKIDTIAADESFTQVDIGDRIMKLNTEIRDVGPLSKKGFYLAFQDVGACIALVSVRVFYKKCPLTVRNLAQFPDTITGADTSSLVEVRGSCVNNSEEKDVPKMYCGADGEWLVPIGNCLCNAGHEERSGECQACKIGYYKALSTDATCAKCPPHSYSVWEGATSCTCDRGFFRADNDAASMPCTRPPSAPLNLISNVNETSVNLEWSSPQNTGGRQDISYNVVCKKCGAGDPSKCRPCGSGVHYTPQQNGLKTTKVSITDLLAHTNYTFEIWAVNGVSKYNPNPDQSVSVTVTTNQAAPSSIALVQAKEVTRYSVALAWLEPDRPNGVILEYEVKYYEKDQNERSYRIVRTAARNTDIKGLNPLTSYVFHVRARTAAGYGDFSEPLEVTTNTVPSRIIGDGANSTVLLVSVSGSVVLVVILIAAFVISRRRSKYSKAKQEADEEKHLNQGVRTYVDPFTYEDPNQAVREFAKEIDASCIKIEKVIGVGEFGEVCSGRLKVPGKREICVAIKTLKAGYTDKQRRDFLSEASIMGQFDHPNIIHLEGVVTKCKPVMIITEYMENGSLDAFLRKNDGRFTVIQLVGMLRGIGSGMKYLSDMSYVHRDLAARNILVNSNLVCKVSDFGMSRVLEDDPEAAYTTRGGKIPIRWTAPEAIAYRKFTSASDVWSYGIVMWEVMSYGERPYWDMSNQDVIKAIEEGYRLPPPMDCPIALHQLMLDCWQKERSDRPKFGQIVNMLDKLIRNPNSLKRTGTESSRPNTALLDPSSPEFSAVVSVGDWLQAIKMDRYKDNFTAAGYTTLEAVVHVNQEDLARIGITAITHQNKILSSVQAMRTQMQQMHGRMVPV
# Chain of kinases (KINOMEscan panel) (Homo sapiens, UniProt Q5VT25) (Q5VT25 whole entry): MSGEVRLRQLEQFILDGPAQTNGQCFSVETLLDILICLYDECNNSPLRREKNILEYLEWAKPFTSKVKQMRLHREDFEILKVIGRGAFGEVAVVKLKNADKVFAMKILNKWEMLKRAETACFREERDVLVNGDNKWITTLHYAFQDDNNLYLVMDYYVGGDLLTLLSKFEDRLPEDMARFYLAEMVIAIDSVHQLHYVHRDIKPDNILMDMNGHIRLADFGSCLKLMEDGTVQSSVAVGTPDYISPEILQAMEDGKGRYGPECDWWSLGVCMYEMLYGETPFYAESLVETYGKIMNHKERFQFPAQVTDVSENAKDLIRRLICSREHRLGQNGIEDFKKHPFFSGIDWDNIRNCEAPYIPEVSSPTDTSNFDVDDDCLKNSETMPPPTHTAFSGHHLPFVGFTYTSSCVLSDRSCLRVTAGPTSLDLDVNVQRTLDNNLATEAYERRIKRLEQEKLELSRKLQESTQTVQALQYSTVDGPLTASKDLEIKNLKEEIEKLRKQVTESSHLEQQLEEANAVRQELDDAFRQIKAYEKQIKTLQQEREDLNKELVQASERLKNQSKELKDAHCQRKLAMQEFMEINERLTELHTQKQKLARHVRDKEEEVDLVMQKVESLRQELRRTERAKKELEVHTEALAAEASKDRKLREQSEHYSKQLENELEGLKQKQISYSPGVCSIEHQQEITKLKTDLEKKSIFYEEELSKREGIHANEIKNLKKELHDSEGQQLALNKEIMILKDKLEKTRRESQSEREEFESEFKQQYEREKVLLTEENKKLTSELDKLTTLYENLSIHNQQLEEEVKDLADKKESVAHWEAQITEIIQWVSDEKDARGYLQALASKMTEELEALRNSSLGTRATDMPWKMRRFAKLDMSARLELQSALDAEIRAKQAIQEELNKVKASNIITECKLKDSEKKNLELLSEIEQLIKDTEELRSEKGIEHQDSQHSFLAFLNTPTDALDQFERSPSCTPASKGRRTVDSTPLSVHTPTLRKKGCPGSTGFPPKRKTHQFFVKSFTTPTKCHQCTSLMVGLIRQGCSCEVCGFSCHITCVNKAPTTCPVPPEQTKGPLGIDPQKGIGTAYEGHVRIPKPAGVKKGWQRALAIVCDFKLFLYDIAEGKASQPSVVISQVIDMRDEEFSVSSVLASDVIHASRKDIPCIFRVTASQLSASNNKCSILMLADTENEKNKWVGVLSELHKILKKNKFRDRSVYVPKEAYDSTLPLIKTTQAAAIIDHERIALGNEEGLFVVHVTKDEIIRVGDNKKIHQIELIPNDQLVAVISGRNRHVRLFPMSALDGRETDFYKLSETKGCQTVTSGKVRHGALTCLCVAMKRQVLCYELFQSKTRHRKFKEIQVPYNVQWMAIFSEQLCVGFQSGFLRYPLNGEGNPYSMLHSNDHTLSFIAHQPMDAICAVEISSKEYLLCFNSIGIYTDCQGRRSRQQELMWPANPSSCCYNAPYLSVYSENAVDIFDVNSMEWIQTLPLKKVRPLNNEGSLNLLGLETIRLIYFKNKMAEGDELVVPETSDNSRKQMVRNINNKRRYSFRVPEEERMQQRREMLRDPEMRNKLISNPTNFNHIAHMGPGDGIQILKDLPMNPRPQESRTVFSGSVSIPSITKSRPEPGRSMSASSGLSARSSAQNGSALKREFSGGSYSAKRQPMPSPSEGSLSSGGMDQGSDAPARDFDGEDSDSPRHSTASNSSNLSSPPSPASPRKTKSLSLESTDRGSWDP
Compound,KINOMEscan BMPR2 [1],KINOMEscan WNK3 [2],KINOMEscan CDC42BPA/MRCKA [3],KINOMEscan ROCK2 [4],KINOMEscan EPHA4 [5],KINOMEscan PDPK1 [6],"KINOMEscan EIF2AK4/GCN2(Kin.Dom.2,S808G) [7]",KINOMEscan FLT3(R834Q) [8]
Cc1cccc(-c2nc(Nc3ccc4nn(C)cc4c3)c3ccccc3n2)n1 [NK167],0,0,0,0,0,32,38,0
Cc1cccc(-c2nc(N(C)c3ccc4ncsc4c3)c3ccccc3n2)n1 [NK-161],18,28,5,0,5,29,53,2
